Tests used:
[1] = Irradiation of caged nucleosides, conversion estimated by HPLC; format: physicochemical; conditions: 500 μM in water/acetone/acetonitrile; 405 nm 20-60 s or 365 nm 5-20 s; LED 3 W
Method: Conversions from caged compounds to uncaged compounds were estimated by integrating the peaks of a UV-spectrum that resulted from the HPLC analysis (Agilent infinity 1260).
When irradiating isolated N2-modified compounds, a final volume of 10 μL in double distilled water was irradiated using a LED (λmax=365 nm/405 nm/420 nm) and then analyzed by RP-HPLC.
A 500 μM solution of the compound 15, nitropiperonylmethyl fused via a carbamate moiety to guanosine (denoted “NPOM guanosine” or “caged guanosine”), in water/acetone/acetonitrile was irradiated in a 10 μL volume with either 405 nm for 20 s, 40 s or 60 s or with 365 nm for 5 s, 10 s or 20 s, respectively, using a LED power (input 3W and output 147 mW/cm^2). HPLC analysis was performed as described above.
Samples of the adenosine fused via a carbamate moiety to 7-(diethylamino)-4-(hydroxymethyl)-coumarin (DEACM) were irradiated with 450 nm. […] The peak at 21.1 min corresponds to the obtained compound and the peaks at 11.1 and 21.9 min correspond to the photo-cleavage products adenosine and DEACM-OH, respectively.

[2] = Stability of the carbamate linkage in water and HeLa cell lysate (HPLC); format: in vitro ADME; conditions: water or HeLa cell lysate, 24 h incubation at 37° C.
Method: To investigate the stability of the carbamate linker in cellular environment the compound 15, nitropiperonylmethyl fused via a carbamate moiety to guanosine, was studied in water and cell lysate. The cell lysate was produced by ultrasonication of HeLa cells (5*10^6 cells) in 400 μL 1×PBS buffer. The compound 15, NPOM-guanosine, suspended in water or cell lysate after 24 h incubation at 37° C. was analysed by HPLC-analysis as described above.
As can be taken from the FIG. 8, the compound 15 was stable under these conditions.

[3] = Irradiation of photocleavable 5′-cap analogs, LC-MS (triple quad); format: physicochemical; conditions: 30 seconds, 365 nm (3 W)
Method: For determination of mass spectra, HPLC—triple-quadrupole mass spectrometry system was used. The system consists of Agilent 1260 Infinity II with dual λ absorbance detector (G7114A) HPLC part and Agilent Ultivo mass spectrometer with JetStream ion source (type of ESI). Column which was used: Agilent Poroshell 120 EC-C18 (3.0×150/2.7 μm). The polar compounds were tested by LC method (eluent 20 mM NH40Ac buffer (pH=6)/CH3CN, gradient 0-30%, column temperature=20° C.).
Samples of the photocleavable 5′-cap analog of formula (22) were irradiated for 30 seconds with 365 nm (3 W).

Reticulocyte Lysate = experiment: In vitro translation of capped FLuc-mRNA and luminescence measurement; format: biochemical; conditions: 30 seconds at 365 nm
Method: In vitro translation was performed using a eukaryotic cell free protein expression kit from Reticulocyte Lysate (Invitrogen). Experiments were performed in 12.5 μL total volume containing 20 ng of the corresponding FLuc-mRNAs, 50 μM L-methionine and 150 mM potassium acetate. Samples were mixed with 8.5 μL of the reticulocyte lysate and incubated for 90 min at 30° C. Afterwards, 2 μL of the respective translation mix were used in subsequent luminescence measurement. The translation efficiency of the reporter mRNAs was assessed in a luciferase assay using Beetle-juice Luciferase Assay Firefly (pjk). Luciferase activity was determined by adding 50 μL freshly prepared substrate solution to the translation mixture. Luminescence was monitored using a Tecan Infinite® m1000pro microplate reader with an acquisition time of 3 s (duration of signal acquisition).
The photocleavable 5′-cap analog of formula (7) was used for in vitro transcription to make FLuc mRNA as described above. This was used for in vitro translation and Luminescence measurement as described above. The commercial non-modified cap analog denoted “m^7GpppG” (Jena Bioscience) was used as positive control. Samples were irradiated for 30 seconds. The ApppG capped mRNA, which is not recognized by the translation initiation factor served as negative control, which is substracted from the other samples as it represents background activity. The experiment was performed in quadruplicates. The FLuc-mRNA capped with the photocleavable 5′-cap analog of formula (7) is denoted “ONB”.
The in vitro translation assay and luminescence measurement was performed as described above using the photocleavable 5′-cap analog of formula (12). The capped mRNA was denoted “DMNB-m^7GpCH2ppG capped FLuc-mRNA”. Samples were irradiated for 30 seconds (365 nm) or 60 seconds (405 nm). The commercial non-modified cap analog denoted “m^7GpppG” (Jena Bioscience) was used as positive control and all other samples were normalized to it. The ApppG capped mRNA, which is not recognized by the translation initiation factor served as negative control, which is substracted from the other samples as it represents background activity. The experiment was performed in triplicates, except *DMNB-m7GpCH2ppG (365 nm) which was a single determination.
The in vitro translation assay in reticulocyte lysate and luminescence measurement was performed as described above using m^7GpppG capped FLuc-mRNA caged with the photocleavable 5′-cap analog of formulas (22) and (25) (denoted “DMNB m^7GpppG” and “NPOM m^7GpppG”). Samples were irradiated for 30 seconds at 365 nm. The ApppG capped mRNA, which is not recognized by the translation initiation factor served as negative control, which was substracted from the other samples as it represents background activity. The values were normalized to the non-irradiated sample with m^7GpppG capped mRNA (100%). The experiment was performed in triplicates.
The in vitro translation assay in reticulocyte lysate and luminescence measurement was performed as described above using m^7GpppG capped FLuc-mRNA with modified nucleotides m^5C and N^1methyl-pseudouridine caged with the photocleavable 5′-cap analog of formulas (22) and (25) (denoted “DMNB m^7GpppG mod” and “NPOM m^7GpppG mod”). Samples were irradiated for 30 seconds at 365 nm. The ApppG capped mRNA, which is not recognized by the translation initiation factor served as negative control, which was substracted from the other samples as it represents background activity. The values were normalized to the non-irradiated sample with m^7GpppG capped mRNA (100%). The experiment was performed in triplicates.

HeLa cells = experiment: Translation and irradiation in HeLa cells of capped GLuc-mRNA (luminescence); format: cell-based; conditions: HeLa; GLuc-mRNA with regular or modified nucleotides; 30 seconds (365 nm)
Method: HeLa cells were transferred to a 96 well plate 20 h prior transfection. 30.000 cells/well were cultivated in growth Media (MEM, 10% FCS, 1% glutamine, 1% Penicillin, 1% Streptomycine, […] non-essential aminoacids). For transfection the growth media was exchanged for MEM-media with 0.6 μL Metafectene® Pro (0.3 μL) and 100 ng mRNA was added per well. 6 h after transfection of the cells the media was exchange by MEM-media, followed by irradiation and another MEM-media exchange. After 24 h post transfection the supernatant in the wells was used for further luminescence measurements. Values of the ApppG capped mRNA represent cap independent translation and were therefore subtracted from the other values.
In cell translation and irradiation in cell culture of mammalian HeLa cells was performed as described above. GLuc mRNA capped with the photocleavable 5′-cap analog of formula (12) (“DMNB”) was used and the commercial non-modified cap analog denoted “m^7GpppG” (Jena Bioscience) was used as a control. HeLa cells were either transfected with the DMNB-m^7GpCH2ppG capped mRNA (irradiated and non-irradiated before transfection) or with the natural capped mRNA (irradiated and non-irradiated before transfection). Irradiation of the mRNA containing the natural cap was performed (5 V, 600 mA) with 365 nm for 30 seconds to evaluate the resulting influence on translational efficiency. DMNB-m^7GpCH2ppG capped mRNA was irradiated in the same way or with 405 nm for 60 seconds. The ApppG capped mRNA, which is not recognized by the translation initiation factor served as negative control, which is substracted from the other samples as it represents background activity. The values were normalized to the non-irradiated m^7GpppG capped sample (100%). The experiment was performed in triplicates.
The luminescence measurement of cell culture media after translation in cells transfected with modified and non-modified GLuc mRNA was repeated using irradiation with 365 nm/405 nm for different periods of time. HeLa cells were either transfected with the GLuc mRNA capped with the photocleavable 5′-cap analog of formula (12) denoted “DMNB-m^7GpCH2ppG capped mRNA” or with the natural m^7GpppG capped mRNA. Cells transfected with the natural capped mRNA were irradiated (5 V, 600 mA) with 365 nm/405 nm for 30 s or 60 s to evaluate the resulting influence on translational efficiency. Cells transfected with DMNB-m^7GpCH2ppG capped mRNA were irradiated in the same way. The ApppG capped mRNA, which is not recognized by the translation initiation factor served as negative control, which is substracted from the other samples as it represents background activity. The values were normalized to the non-irradiated cells with m^7GpppG capped mRNA (100%). The experiment was performed in triplicates.
Luminescence measurement of cell culture media after translation of transfected modified and non-modified GLuc mRNA in cells. HeLa cells were either transfected with the NPOM-m^7GpCH2ppG capped mRNA or with the natural m^7GpppG capped mRNA. Cells transfected with the natural capped mRNA were irradiated (5 V, 600 mA) with 365 nm/405 nm for different periods of time to evaluate the resulting influence on translational efficiency. Cells transfected with NPOM-m^7GpCH2ppG capped mRNA were irradiated in the same way. The ApppG capped mRNA, which is not recognized by the translation initiation factor served as negative control, which is substracted from the other samples as it represents background activity. […]

HEK293T cells = experiment: In cell translation assay in HEK293T cells of capped GLuc-mRNA (luminescence); format: cell-based; conditions: GLuc-mRNA with regular or modified nucleotides, 30 seconds (365 nm)
Description: In cell translation assay in HeLa and HEK293T cells with m^7GpppG capped GLuc-mRNA caged with the photocleavable 5′-cap analog of formula (22) (denoted “DMNB m^7GpppG”) with either A) regular nucleotides or B) modified nucleotides m^5C and N^1methyl-pseudouridine. Samples were irradiated for 30 seconds (365 nm). The ApppG capped mRNA, which is not recognized by the translation initiation factor served as negative control, which is substracted from the other samples as it represents background activity. The values were normalized to the non-irradiated sample with m^7GpppG capped mRNA (100%). The experiment was performed in triplicates.

With `CC(OC(=O)Nc1nc2c(ncn2[C@@H]2O[C@H](CO)[C@@H](O)[C@H]2O)c(=O)[nH]1)c1cc2c(cc1[N+](=O)[O-])OCO2` (stereo partly shown) [compound 15, N^2-(1-(6-nitrobenzo[d][1,3]dioxol-5-yl)ethyl)oxycarbonylguanosine] the “conversion of caged guanosine to guanosine upon irradiation” value [1] was “cleaved by irradiation and that guanosine is regained without side products” and the “stability (HPLC)” value [2] was “stable”.

In the case of `COc1cc(COC(=O)Nc2nc3c(c(=O)[nH]2)[n+](C)cn3[C@@H]2O[C@H](COP(=O)(O)OP(=O)(O)OP(=O)(O)OC[C@H]3O[C@@H](n4cnc5c(=O)[nH]c(N)nc54)C(O)C3O)C(O)C2O)c([N+](=O)[O-])cc1OC` (stereo partly shown) [compound 22, P1-(N^2-(4,5-Dimethoxy-2-nitrobenzyl)oxycarbonyl-7-methylguanosin-5′-yl)-P3-guanosin-5′-yl triphosphate], the “uncaging of the cap after irradiation (LC-MS)” value [3] is reported as “partially uncaged”, the “in vitro translation (luminescence) after irradiation” value (Reticulocyte Lysate; capped FLuc-mRNA with modified nucleotides m^5C and N^1methyl-pseudouridine) is reported as “marked increase of translation” and the “in vitro translation (luminescence) after irradiation” value (Reticulocyte Lysate; capped FLuc-mRNA, regular nucleotides) is reported as “marked increase of translation”. The “translation in cells (luminescence) after irradiation” value (HeLa cells) was “marked increase of translation” and the “translation in cells (luminescence) after irradiation” value (HEK293T cells) was “marked increase of translation”.
